Test results: US9856250B2, “Substituted tropane derivatives” (TOA EIYO LTD., priority 2014, dated 2018)

target: human T-type calcium channels (human Cav3.2) (Homo sapiens (Human), UniProt O95180); assay: Antagonistic activity against T-type calcium channels (Cav3.2), Fura2 intracellular calcium assay in HEK293 cells; format: cell-based; details: not given
Description: For representative compounds of the present invention, the antagonistic activity against T-type calcium channels (Cav3.2) was examined by the Test Examples described below. For the respective tests, human embryo kidney cells (HEK293 cells) in which human T-type calcium channels (human Cav3.2) were stably expressed were used.
The HEK293 cells having human Cav3.2 stably expressed therein were cultured at 37° C. in Alpha-MEM, to which 10% (v/v) fetal bovine serum (FBS), penicillin (100 U/mL), streptomycin (100 μg/mL), and G418 ([…]) had been added. The cells were suspended in the culture liquid and were inoculated onto a 96-well plate. Subsequently, the cells were cultured for 48 hours. The culture liquid was removed, and the liquid was changed to S-MEM, to which 5% (v/v) FBS, calcium chloride (0.5 mmol/L), L-glutamine (2 mmol/L), L-alanine (8.9 ng/mL), L-asparagine (13.2 ng/mL), L-aspartic acid (1.33 ng/mL), L-glutamic acid (14.7 ng/mL), glycine (7.5 ng/mL), L-proline (11.5 ng/mL, L-serine (10.5 ng/mL), penicillin (100 U/mL), and streptomycin (100 μg/mL) had been added. The cells were cultured for another 24 hours. The culture liquid was removed again, and the cells were washed with an assay buffer (140 mmol/L sodium chloride, 5 mmol/L potassium chloride, 0.5 mmol/L magnesium chloride, 0.5 mmol/L calcium chloride, 10 mmol/L glucose, 0.4 mmol/L magnesium sulfate, 10 mmol/L HEPES, and […] sulfinpyrazone, pH 7.4) that had been kept warm at 37° C. Subsequently, an assay buffer prepared by dissolving Fura2-AM, which is a fluorescent Ca^2+ indicator, to a concentration of 5 μM, was added to the cells, and the system was incubated for 30 minutes at 37° C. The assay buffer having Fura2 dissolved therein was removed, and the cells were washed with the assay buffer. Subsequently, an assay buffer prepared by adding a test compound was added to the cells, and the system was incubated for 15 minutes. The plate was mounted on a fluorescence analyzer (FLEX STATION II, Molecular Devices, LLC), and the baseline was measured for 20 seconds. Subsequently, any change in the intracellular calcium concentration that was induced when an assay buffer prepared by adding 100 mmol/L calcium chloride was added to the cells, was measured (excited at 340 nm or 380 nm, and detected at 510 nm). The fluorescence intensity ratios obtainable at the respective wavelengths were calculated.
Meanwhile, the test compound solution was prepared by dissolving each test compound in DMSO to a concentration of 10 mmol/L, and then adjusting the concentration with the assay buffer so as to obtain the set concentration. For the control solution, DMSO was used instead of a test compound.
The inhibitory activity level (%) of a test compound was calculated by subtracting the average value of the fluorescence intensity ratio for a period of 0 to 20 seconds after initiation of measurement, from the average value of the fluorescence intensity ratio for a period of 45 to 50 seconds after initiation of measurement, taking the value obtained using the control solution as the maximum activity of Cav3.2, and comparing this value with the activity in the presence of the test compound.
Calculation of IC50 Value:
The inhibitory activity of each test compound was measured at concentrations of […], and the IC50 value was calculated using the curve fitting formula (Model 08: sigmoidal inhibition curve) of ASSAY EXPLORER (Symyx Technologies, Inc.).
Average of RFU value obtained for 25 to 30 seconds after the addition of a […] assay buffer after treatment with the control solution (for 45 to 50 seconds after the initiation of measurement). The RFU in the formula represents the Relative Fluorescence Unit.

human T-type calcium channels (human Cav3.2), sequence (O95180 whole entry): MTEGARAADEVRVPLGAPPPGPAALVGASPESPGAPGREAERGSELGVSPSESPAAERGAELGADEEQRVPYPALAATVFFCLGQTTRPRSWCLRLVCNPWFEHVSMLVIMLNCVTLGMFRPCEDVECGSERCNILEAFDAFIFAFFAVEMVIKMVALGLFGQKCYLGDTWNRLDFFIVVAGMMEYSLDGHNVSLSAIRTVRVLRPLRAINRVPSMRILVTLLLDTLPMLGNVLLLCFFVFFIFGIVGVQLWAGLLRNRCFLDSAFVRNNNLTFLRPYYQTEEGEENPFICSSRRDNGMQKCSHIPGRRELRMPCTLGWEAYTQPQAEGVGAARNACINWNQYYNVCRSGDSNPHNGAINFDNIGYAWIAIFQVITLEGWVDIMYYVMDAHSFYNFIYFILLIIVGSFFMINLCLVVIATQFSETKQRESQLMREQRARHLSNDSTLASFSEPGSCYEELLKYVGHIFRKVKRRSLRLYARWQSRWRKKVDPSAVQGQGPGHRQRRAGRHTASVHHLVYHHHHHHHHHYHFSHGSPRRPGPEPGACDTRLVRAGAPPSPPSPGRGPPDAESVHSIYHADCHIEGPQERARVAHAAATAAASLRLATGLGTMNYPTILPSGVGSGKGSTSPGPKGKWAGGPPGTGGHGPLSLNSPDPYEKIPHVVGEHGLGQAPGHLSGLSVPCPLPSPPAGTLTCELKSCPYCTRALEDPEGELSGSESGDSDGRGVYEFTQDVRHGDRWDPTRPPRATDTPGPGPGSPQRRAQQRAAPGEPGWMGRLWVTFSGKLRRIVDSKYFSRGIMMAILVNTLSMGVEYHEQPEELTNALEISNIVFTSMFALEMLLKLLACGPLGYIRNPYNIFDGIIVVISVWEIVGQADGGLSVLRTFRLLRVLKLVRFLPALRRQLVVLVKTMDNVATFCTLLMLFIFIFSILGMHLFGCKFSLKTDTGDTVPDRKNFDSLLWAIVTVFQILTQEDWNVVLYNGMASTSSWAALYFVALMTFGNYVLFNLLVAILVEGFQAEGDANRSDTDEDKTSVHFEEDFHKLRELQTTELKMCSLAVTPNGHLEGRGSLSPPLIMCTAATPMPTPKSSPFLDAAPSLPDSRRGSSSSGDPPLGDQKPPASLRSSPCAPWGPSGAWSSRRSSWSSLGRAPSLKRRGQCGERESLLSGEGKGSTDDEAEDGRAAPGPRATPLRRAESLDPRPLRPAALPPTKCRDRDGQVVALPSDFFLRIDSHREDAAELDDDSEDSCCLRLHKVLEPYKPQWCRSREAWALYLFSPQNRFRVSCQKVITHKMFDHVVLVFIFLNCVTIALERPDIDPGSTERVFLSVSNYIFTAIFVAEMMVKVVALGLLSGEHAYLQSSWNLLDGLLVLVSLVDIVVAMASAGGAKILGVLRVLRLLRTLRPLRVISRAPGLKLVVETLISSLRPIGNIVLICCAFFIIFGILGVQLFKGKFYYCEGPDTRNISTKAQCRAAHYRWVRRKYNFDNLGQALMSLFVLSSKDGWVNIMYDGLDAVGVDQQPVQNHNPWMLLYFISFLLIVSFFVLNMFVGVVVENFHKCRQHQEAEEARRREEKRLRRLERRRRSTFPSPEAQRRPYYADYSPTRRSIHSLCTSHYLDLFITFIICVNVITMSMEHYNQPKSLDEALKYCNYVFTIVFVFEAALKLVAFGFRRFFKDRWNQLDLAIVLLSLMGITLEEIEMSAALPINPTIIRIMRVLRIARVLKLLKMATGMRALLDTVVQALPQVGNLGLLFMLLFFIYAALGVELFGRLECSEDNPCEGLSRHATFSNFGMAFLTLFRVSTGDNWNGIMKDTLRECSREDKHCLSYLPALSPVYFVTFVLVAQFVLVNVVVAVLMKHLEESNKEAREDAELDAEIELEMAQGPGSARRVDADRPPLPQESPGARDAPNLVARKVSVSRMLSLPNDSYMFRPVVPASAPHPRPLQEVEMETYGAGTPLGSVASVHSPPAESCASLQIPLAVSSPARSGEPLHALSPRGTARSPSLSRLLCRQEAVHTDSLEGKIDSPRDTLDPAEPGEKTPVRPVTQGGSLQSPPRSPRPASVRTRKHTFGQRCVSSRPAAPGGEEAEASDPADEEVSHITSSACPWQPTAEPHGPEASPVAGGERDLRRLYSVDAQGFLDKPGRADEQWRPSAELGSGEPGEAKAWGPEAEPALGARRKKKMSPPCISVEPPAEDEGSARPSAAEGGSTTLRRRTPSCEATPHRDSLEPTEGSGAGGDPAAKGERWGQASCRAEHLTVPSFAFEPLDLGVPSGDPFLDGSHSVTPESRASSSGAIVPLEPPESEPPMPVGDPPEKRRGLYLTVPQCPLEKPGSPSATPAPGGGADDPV

| Structure (SMILES) | IC50 |
| --- | --- |
| CC(C)(C)NC(=O)CN1[C@@H]2CC[C@H]1C[C@H](CNC(=O)CC13CC4CC(CC(C4)C1)C3)C2 [Example 18] | 73 nM |
| Cc1oc2c(c1C(=O)NC[C@@H]1C[C@H]3CC[C@@H](C1)N3CC(=O)NC(C)(C)C)CCCC2 [Example 19] | 48 nM |
| Cn1cc(C(=O)NC[C@@H]2C[C@H]3CC[C@@H](C2)N3CC(=O)NC(C)(C)C)c2ccccc21 [Example 24] | 78 nM |
| CC(C)(C)NC(=O)CN1[C@@H]2CC[C@H]1C[C@H](CNC(=O)C(C)(C)Oc1cccc(Cl)c1)C2 [Example 31] | 73 nM |
| CCn1cc(C(=O)NC[C@@H]2C[C@H]3CC[C@@H](C2)N3CC(=O)NC(C)(C)C)c2ccccc21 [Example 36] | 49 nM |
| Cc1c(C(=O)NC[C@@H]2C[C@H]3CC[C@@H](C2)N3CC(=O)NC(C)(C)C)c2ccccc2n1C [Example 37] | 67 nM |
| Cn1cc(C(=O)NC[C@@H]2C[C@H]3CC[C@@H](C2)N3CC(=O)NC2(C(F)(F)F)CC2)c2ccccc21 [Example 45] | 103 nM |
| COc1cc(F)cc(C(=O)NC[C@@H]2C[C@H]3CC[C@@H](C2)N3CC(=O)NC(C)(C)C)c1 [Example 56] | 34 nM |
| CC(C)(C)NC(=O)CN1[C@@H]2CC[C@H]1C[C@H](CNC(=O)C1CCCCC1)C2 [Example 74] | 101 nM |
| CC(C)(C)NC(=O)CN1[C@@H]2CC[C@H]1C[C@H](CNC(=O)c1ccc(Cl)cc1)C2 [Example 77] | 22 nM |
| CC(C)(C)NC(=O)CN1[C@@H]2CC[C@H]1C[C@H](CNC(=O)c1cc(F)cc(C#N)c1)C2 [Example 79] | 45 nM |
| CCc1oc2ccccc2c1C(=O)NC[C@@H]1C[C@H]2CC[C@@H](C1)N2CC(=O)NC(C)(C)C [Example 84] | 10 nM |
| Cc1oc2ccccc2c1C(=O)NC[C@@H]1C[C@H]2CC[C@@H](C1)N2CC(=O)NC(C)(C)C [Example 85] | 15 nM |
| COc1ccc2oc(C)c(C(=O)NC[C@@H]3C[C@H]4CC[C@@H](C3)N4CC(=O)NC(C)(C)C)c2c1 [Example 86] | 91 nM |
| Cc1oc2c(c1C(=O)NC[C@@H]1C[C@H]3CC[C@@H](C1)N3CC(=O)NC1(C(F)(F)F)CC1)CCCC2 [Example 95] | 88 nM |
| CC(C)(C)NC(=O)CN1[C@@H]2CC[C@H]1C[C@H](CNC(=O)C13CC4CC(CC1C4)C3)C2 [Example 107] | 49 nM |
| O=C(CN1[C@@H]2CC[C@H]1C[C@H](CNC(=O)C13CC4CC(CC1C4)C3)C2)NC1(CO)CCCC1 [Example 109] | 94 nM |
| CC(C)(C)NC(=O)CN1[C@@H]2CC[C@H]1C[C@H](CNC(=O)c1cccc(F)c1)C2 [Example 113] | 39 nM |

same assay, conditions: HEK293 cells stably expressing human Cav3.2; Fura2 fluorescence ratio after calcium chloride addition; read-out: IC50

| Structure (SMILES) | IC50 |
| --- | --- |
| CC(C)(C)NC(=O)CN1[C@@H]2CC[C@H]1C[C@H](CC(=O)Nc1cccc(Cl)c1)C2 [Example 1, 2-[(exo)-8-(tert-Butylcarbamoyl)methyl-8-azabicyclo[3.2.1]octan-3-yl]-N-(3-chlorophenyl)acetamide] | 68 nM |
| COc1cc(F)cc(NC(=O)C[C@@H]2C[C@H]3CC[C@@H](C2)N3CC(=O)NC(C)(C)C)c1 [Example 3] | 69 nM |
| CC(C)(C)NC(=O)CN1[C@@H]2CC[C@H]1C[C@H](CC(=O)NC13CC4CC(CC(C4)C1)C3)C2 [Example 4, N-(Adamantan-1-yl)-2-[(exo)-8-(tert-butylcarbamoyl)methyl-8-azabicyclo[3.2.1]octan-3-yl]acetamide] | 82 nM |
| CC(C)(C)NC(=O)CN1[C@@H]2CC[C@H]1C[C@H](CNC(=O)c1coc3ccccc13)C2 [Example 11, N-[(exo)-8-(tert-Butylcarbamoyl)methyl-8-azabicyclo[3.2.1]octan-3-yl]methylbenzofuran-3-carboxamide] | 3 nM |
| CC(C)(C)NC(=O)CN1[C@@H]2CC[C@H]1C[C@H](CNC(=O)c1csc3c1CCCC3)C2 [Example 16] | 47 nM |
| Cc1cc(C(=O)NC[C@@H]2C[C@H]3CC[C@@H](C2)N3CC(=O)NC(C)(C)C)n(C)n1 [Example 23] | 203 nM |
| CC(C)(C)NC(=O)CN1[C@@H]2CC[C@H]1C[C@H](CNC(=O)C(C)(C)Oc1ccc(C3CC3(Cl)Cl)cc1)C2 (some centres unmarked) [Example 27] | 94 nM |
| CC(C)(C)NC(=O)CN1[C@@H]2CC[C@H]1C[C@H](CNC(=O)C(C)(C)Oc1ccccc1)C2 [Example 28] | 65 nM |
| COc1cccc(OC(C)(C)C(=O)NC[C@@H]2C[C@H]3CC[C@@H](C2)N3CC(=O)NC(C)(C)C)c1 [Example 32] | 98 nM |
| CC(C)(C)NC(=O)CN1[C@@H]2CC[C@H]1C[C@H](CNC(=O)c1cccc(Cl)c1)C2 [Example 52] | 48 nM |
| COc1cc(Cl)cc(C(=O)NC[C@@H]2C[C@H]3CC[C@@H](C2)N3CC(=O)NC(C)(C)C)c1 [Example 53] | 49 nM |
| Cc1cc(F)cc(C(=O)NC[C@@H]2C[C@H]3CC[C@@H](C2)N3CC(=O)NC(C)(C)C)c1 [Example 55] | 36 nM |
| CC(C)(C)NC(=O)CN1[C@@H]2CC[C@H]1C[C@H](CNC(=O)c1ccc3c(c1)CCCO3)C2 [Example 59] | 61 nM |
| CC(C)(C)NC(=O)CN1[C@@H]2CC[C@H]1C[C@H](CNC(=O)c1cccc3c1CCC3)C2 [Example 60] | 78 nM |
| CC(C)(C)NC(=O)CN1[C@@H]2CC[C@H]1C[C@H](CNC(=O)C13CC4CC(CC(C4)C1)C3)C2 [Example 65] | 99 nM |
| CC(C)(C)NC(=O)CN1[C@@H]2CC[C@H]1C[C@H](CNC(=O)C1C(C)(C)C1(C)C)C2 [Example 67] | 42 nM |
| Cn1nc(C(C)(C)C)cc1C(=O)NC[C@@H]1C[C@H]2CC[C@@H](C1)N2CC(=O)NC(C)(C)C [Example 69] | 51 nM |
| CC(C)(C)CCC(=O)NC[C@@H]1C[C@H]2CC[C@@H](C1)N2CC(=O)NC(C)(C)C [Example 71] | 64 nM |
| COc1cc(C)cc(C(=O)NC[C@@H]2C[C@H]3CC[C@@H](C2)N3CC(=O)NC(C)(C)C)c1 [Example 72] | 55 nM |
| CC(C)(C)NC(=O)CN1[C@@H]2CC[C@H]1C[C@H](CNC(=O)c1ccc(F)cc1)C2 [Example 78] | 44 nM |
| Cc1ccc(C(=O)NC[C@@H]2C[C@H]3CC[C@@H](C2)N3CC(=O)NC(C)(C)C)s1 [Example 81] | 93 nM |
| COc1cc(C)cc(C(=O)NC[C@@H]2C[C@H]3CC[C@@H](C2)N3CC(=O)NC2(C(F)(F)F)CC2)c1 [Example 96] | 58 nM |
| Cn1cc(C(=O)NC[C@@H]2C[C@H]3CC[C@@H](C2)N3CC(=O)NC(C)(C)C)c2cc(Cl)ccc21 [Example 100, N-[(exo)-8-(tert-Butylcarbamoyl)methyl-8-azabicyclo[3.2.1]octan-3-yl]methyl-5-chloro-1-methyl-1H-indole-3-carboxamide] | 85 nM |
| COCC(C)(C)NC(=O)CN1[C@@H]2CC[C@H]1C[C@H](CNC(=O)c1cc(F)cc(Cl)c1)C2 [Example 104, 3-Chloro-5-fluoro-N-{(exo)-8-[(2-methoxy-1,1-dimethylethyl)carbamoyl]methyl-8-azabicyclo[3.2.1]octan-3-yl}methylbenzamide] | 13 nM |
| CC1(NC(=O)CN2[C@@H]3CC[C@H]2C[C@H](CNC(=O)c2cc(F)cc(Cl)c2)C3)COC1 [Example 112] | 93 nM |
| O=C(CN1[C@@H]2CC[C@H]1C[C@H](CNC(=O)c1cc(F)cc(Cl)c1)C2)NC1(C(F)(F)F)CC1 [Example 114] | 70 nM |
| CC1(NC(=O)CN2[C@@H]3CC[C@H]2C[C@H](CNC(=O)c2cc(F)cc(Cl)c2)C3)CC1 [Example 115] | 63 nM |
| CN(C(=O)CN1[C@@H]2CC[C@H]1C[C@H](CNC(=O)c1cc(F)cc(Cl)c1)C2)C(C)(C)C [Example 118] | 78 nM |
| Cc1cccc2[nH]c(C[C@@H]3C[C@H]4CC[C@@H](C3)N4CC(=O)NC(C)(C)C)nc12 [Example 120, N-tert-Butyl-2-[(exo)-3-(4-methyl-1H-benzimidazol-2-yl)methyl-8-azabicyclo[3.2.1]octan-8-yl]acetamide] | 59 nM |
